# Assay results published in patent US9243036B2, “Anti-microbial activity of synthetic peptides” (THE UNITED STATES OF AMERICA, as represented by the …, priority 2012, dated 2016).
# Residues, ends and D or L forms follow the SMILES beside them.
# Key:
# B. cereus [1] = experiment: Whole-cell ELISA binding of biotinylated peptide; details: EC5 50 μg/ml
# Experimental: (§1) ELISA. Log-phase cultures of bacteria were centrifuged at 3,000×g. The cell pellet was resuspended and 10-fold serial dilutions were made in 1×PBS. Bacterial cell suspension at a concentration of 10^3 CFU was coated to the wells of 96-well micro plate (Becton Dickinson, Bedford, Mass.) and incubated overnight at RT. Subsequently, cells were fixed in ethanol (Aldrich Chemical Company, Milwaukee, Wis.) for 10 minutes (min) and the plates were air-dried. Wells were blocked with 5% bovine serum albumin (BSA) (Sigma, St. Louis, Mo.) for 60 min at room temperature (RT), rinsed with PBS and then EC5 peptide suspended in phosphate buffered saline (PBS) at a final concentration of 50 μg/ml were added to all the wells and incubated for 15 min. Following incubation, wells were washed 3 times with PBST buffer (PBS pH 7.4, 0.01% Tween 20). The wells were further incubated with 1:10,000 dilution of streptavidin-HRP conjugate (Upstate, Temecula, Calif.) for 15 min and washed with PBST buffer. Tetramethylbenzidine (TMB) membrane peroxidase substrate (Zymed Laboratories, Carlsbad, Calif.) system was used to detect the enzyme label in accordance with the manufacturer's instructions. The color development in the 96-well plate was recorded by using SYNERGY 4™ BioTek micro plate reader (BioTek Instruments, Winooski, Vt.) at 490 nm wavelength.
# E. coli cells = experiment: Whole-cell ELISA binding of biotinylated peptide; details: EC5 50 μg/ml; p<0.001
# Experimental: as §1
# K pneumoniae = experiment: Whole-cell ELISA binding of biotinylated peptide; details: EC5 50 μg/ml
# Experimental: as §1
# P. aeruginosa cells = experiment: Whole-cell ELISA binding of biotinylated peptide; details: EC5 50 μg/ml; p<0.05
# Experimental: as §1
# S. aureus = experiment: Whole-cell ELISA binding of biotinylated peptide; details: EC5 50 μg/ml
# Experimental: as §1
# S. epidermidis [2] = experiment: Whole-cell ELISA binding of biotinylated peptide; details: EC5 50 μg/ml
# Experimental: as §1
# B. cereus [3] = experiment: MIC by standard dilution assay (CLSI); type: cell-based
# Experimental: (§2) In vitro anti-bacterial activity of EC5. The test microorganisms mentioned earlier in the experimental procedures were used to evaluate the bactericidal activity of EC5 peptide. The minimum inhibitory concentrations (MICs) of the peptide were determined by standard dilution assay as recommended by Clinical and Laboratory Standard Institutes (CLSI) guidelines (Azad, M. A., et al., (2011) Antimicrob. Agents Chemother. 55, 2137-2145). Bacteria were grown to mid-logarithmic phase in cation-supplemented Mueller-Hinton broth (MHB) (Becton Dickinson, Sparks, Md.) on an orbital shaker (37° C.) and diluted to a 0.5 McFarland standard to a final volume of 1 ml. Decreasing concentrations of the peptide were incubated with the microorganisms. Results were recorded by visual inspection after 24 h of incubation at 37° C. Assay was repeated three separate times to ensure reproducibility. […] EC5 concentrations 0x, 0.5x, 1x, and 2×MIC were incubated with logarithmic phase of bacteria of approximately 10^5 CFU/ml in an orbital shaker for 48 h at 37° C. Samples were drawn and plated on NA plates. Polymyxin B was used as a positive control and peptide with no anti-bacterial activity from our previous studies was used as a negative control.
# Gram-positive strains = experiment: MIC by standard dilution assay (CLSI); type: cell-based
# Experimental: as §2
# S. epidermidis [4] = experiment: MIC by standard dilution assay (CLSI); type: cell-based
# Experimental: as §2
# E. coli [5] = experiment: Time-kill kinetics; type: cell-based
# Experimental: as §2
# P. aeruginosa [6] = experiment: Time-kill kinetics; type: cell-based; details: P. aeruginosa ATCC 12121; 27853
# Experimental: as §2
# E. coli [7] = experiment: Outer membrane permeabilization (NPN uptake) assay; type: cell-based
# Experimental: (§3) Membrane-permeabilizing activity of the peptide was determined using the fluorescent dye N-phenyl-1-napthylamine (NPN) assay, as described earlier (Loh et al. (1984) Antimicrob. Agents Chemother. 26, 546-551), with intact cells of E. coli and P. aeruginosa. The increase in fluorescence due to partitioning of NPN uptake into outer membrane (OM) was measured by addition of increasing concentrations of peptide. Polymyxin B (PMB) was taken as a positive control due to its outer membrane permeabilizing properties. All experiments were performed three times. S. aureus was used as a negative control.
# (§4) Outer membrane permeabilizing activity of EC5 against E. coli and P. aeruginosa was determined using the fluorescent dye N-phenyl-1-napthylamine (NPN) assay. The outer membrane of a bacterial cell is impermeable to NPN under normal conditions. However permeabilization of outer membrane by anti-microbial peptides allows the uptake of NPN thereby leading to increase in fluorescence in the cell. […] The outer membrane permeabilizing activity of EC5 was compared to polymyxin B, a well studied membrane permeabilising agent (Daugelavicius, R., et al., (2000) Antimicrob. Agents Chemother. 44, 2969-2978).
# P. aeruginosa [8] = experiment: Outer membrane permeabilization (NPN uptake) assay; type: cell-based
# Experimental: as §3, §4
# [9] = increasing peptide concentrations
smiles,measurement,setting,value
"CC[C@H](C)[C@H](NC(=O)[C@H](CCCCN)NC(=O)[C@H](CCCNC(=N)N)NC(=O)[C@H](Cc1ccccc1)NC(=O)[C@H](CC(C)C)NC(=O)[C@H](CC(C)C)NC(=O)[C@@H](N)CCCNC(=N)N)C(=O)N[C@@H](CCCNC(=N)N)C(=O)N[C@@H](CCCNC(=N)N)C(=O)N[C@@H](CC(C)C)C(=O)N[C@@H](CCCCN)C(=O)N[C@@H](CCCNC(=N)N)C(=O)O [EC5, RLLFRKIRRLKR] (H-RLLFRKIRRLKR-OH; N-terminus and C-terminus assumed)",binding to B. cereus,B. cereus [1],did not bind
same,binding to E. coli cells,E. coli cells,significant binding efficiency
same,binding to K pneumoniae,K pneumoniae,did not bind
same,binding to P. aeruginosa cells,P. aeruginosa cells,showed binding
same,binding to S. aureus,S. aureus,did not bind
same,binding to S. epidermidis,S. epidermidis [2],did not bind
same,activity against B. cereus,B. cereus [3],not active
same,activity against Gram-positive strains,Gram-positive strains,no activity
same,activity against S. epidermidis,S. epidermidis [4],not active
same,reduction of E. coli,"E. coli [5]; 4 μg/ml, around 45 min of exposure",2-3 log10 CFU/ml
same,regrowth,"E. coli [5]; E. coli ATCC 700928, 25922",no regrowth until 24 hrs
same,time to complete inhibition,"E. coli [5]; E. coli ATCC 700928, 25922",5 min
same,killing of E. coli,E. coli [5]; MBC concentration of 8 μg/ml,complete killing
same,regrowth,P. aeruginosa [6],no regrowth until 24 hrs
same,time to complete inhibition,P. aeruginosa [6],5 min
same,increase in NPN fluorescence compared with polymyxin B,E. coli [7]; at similar concentrations,higher than for polymyxin B
same,NPN fluorescence (outer membrane permeabilization),E. coli [7]; [9],dose-dependent increase in fluorescence
same,increase in NPN fluorescence compared with polymyxin B,P. aeruginosa [8]; at similar concentrations,higher than for polymyxin B
same,NPN fluorescence (outer membrane permeabilization),P. aeruginosa [8]; [9],dose-dependent increase in fluorescence
